# Measurements published in US20120101121A1, “DRUG DEMONSTRATING ANXIOLYTIC EFFECT BASED ON HYDROGENATED PYRIDO (4,3-B) INDOLES, ITS PHARMACOLOGICAL COMPOUND AND APPLICATION METHOD” (Medivation Neurology ,Inc., priority 2007, published 2012).
# What was measured:
# [1] = system: white outbred male rats; test: Open field test under stress; conditions: for Exits to the center of the field / Horizontal activity / Surveyed holes / Vertical activity: 40 min after dosing, 3 min observation
# Method: The “open field” test uses a method of creating stress based on a rat's fear of new surroundings, open space and bright illumination.
# An open field setup used in this study consisted of a one meter square box (1 m×1 m×1 m) with a clear top. The floor of the chamber was uniformly divided by lines into 9 squares, with 16 2.5 cm diameter holes. Before the experiment, rats were kept in the dark for 10 minutes, after which they were placed onto one of the peripheral squares of the open field. […] During the experiment the following information was recorded: the number of crossed squares on the periphery and in the center (separately), the number of vertical stands, the number of times holes were surveyed, and the number of exits to the center of the open field.
# The main indicator of anxiolytic effect of the drugs was the measure of number of exits by the rat to the center of illuminated field. Increase or decrease in the number of horizontal or vertical movements reflected sedative or stimulating effect of the drug, while the number of holes surveyed reflects orientation-investigative behavior of the rat.
# Experiments were conducted using white outbred male rats weighing 240 g to 280 g. Before the beginning of the test, experimental animals were randomly separated into groups containing at least 10 rats. […] Rats in the control group received 0.2 ml water per 100 g mass administered intraperitoneally. Data was recorded beginning 40 minutes after administering the compounds.
# [2] = system: white outbred male rats; test: Elevated plus-maze (EPM) in rats; conditions: for Latent time / Number of entries into bright arms / Number of entries into dark arms / Time in bright arms / Total number of crossings: 40 min after dosing, 5 min observation
# Method: The model is based on stress and fear, which appear in animals while displaying orientation-investigative behavior and burrowing reflex under the complicated conditions of elevated plus-maze (novelty of surroundings, fear of height and illumination).
# EPM for rats is performed in a chamber consisting of four compartments formed by the crossing of two strips measuring 50×10 cm. Two opposing compartments have vertical walls 40 cm high (protected dark arms), while two others (unprotected open bright arms) are free from protective walls. The maze is elevated 50 cm off the floor. At the center of the chamber where the two strips cross, there is a central platform measuring 10×10 cm. Rats were placed on the central platform with their tails facing an open bright arm. Time remaining on the central platform, time spent by the animals inside the open arms, and the number of entries into open and closed arms were recorded. The total observation time for each animal was 5 minutes. The main criterion of anxiolytic effect is the measure of time spent in the open bright arm of the setup. The number of crossings the central platform (number of entries into the dark and bright arms of the maze and the sum thereof) was used to estimate the effect of compounds on orientation-investigative behavior and motion activity of rats.
# Experiments were conducted using white outbred male rats weighing 240 g to 280 g. Before beginning the test, experimental animals were randomly separated into groups of at least 10 rats. […] Rats in the control group received 0.2 ml water per 100 g mass administered intraperitoneally. Data was recorded beginning forty minutes after administration of the compounds.
# [3] = system: outbred white male rats; test: Vogel conflict situation test (punishable drinkings); type: in vivo, rat; conditions: for No. of punishable drinkings: 40 min before test, 10 min registration
# Method: 93-113). Such conflict situations most frequently lead to stress and neurotic diseases.
# The tests were conducted using outbred white male rats with body weights between 220 g and 250 g. […] The conflict situation was created by suppressing the drinking reflex during water consumption from the drinking tube using algesic electric stimulus (i.e., electric shock causing pain). Thus, the Vogel conflict method is based on the conflict of two motivations: drinking and defensive. Thus, the animal fears punishment when attempting to satisfy its thirst, and that fear suppresses typical animal behavior. The animal cannot satisfy its thirst, creating an imbalance between what is desirable and what is real, thereby resulting in a stressful situation, accompanied by anxiety and fear of receiving an additional algesic electric stimulus. If a test compound has anxiolytic effect, it will enable the animal to overcome anxiety and fear of the punishment factor, restoring the ability to drink despite the possibility of receiving additional algesic electric stimuli, measured as an increase in incidents of punishable responses, i.e., drinking, despite the continued risk of receiving algesic electric stimuli.
# The experimental setup consists of three parts: 4 experimental chambers, an electronic unit and a counting device. The experimental chamber measures 275×275×450 mm and is made of Plexiglas. It is installed on a standard electrode floor made of 4 mm diameter stainless steel rods spaced by 8-10 mm apart. Attached to the side wall of each chamber is a standard drinking tube attached to a glass container including a stainless steel nipple. In the device, the drinking tube is installed within common space of the chamber, not in the darkened section. The nipple extends 2 cm into the chamber at a height of 5 cm from the floor. The reason for such arrangement is that once exposed to a new environment, the animals instinctively attempt to hide in the dark section, and therefore may accidentally find a drinking tube, not as a consequence of purposeful search to satisfy the motivation. The electrode floor and the nipple of the drinking tube are connected to the electronic unit. The electronic unit contains current stabilizers (one per channel, which provides the possibility of independent current regulation), output signal generators for the counting device and delay generators for supplying punishing current to the drinking tube during the day of the experiment. That arrangement permits registration of non-punishable drinkings while establishing a drinking habit (trainings without supplying current to the drinking tubes), administration of a punishment current, and recordation of signals from punishable drinkings during the experiment.
# The counting device enables registration of non-punishable drinkings during training and punishable drinkings during the experiment. Registration of readings was conducted using Pentium III personal computer with a 550 MHz C.P.U., a special device for converting output signals from the electronic unit into standard pulses suitable for inputting to the computer via a serial port, and a program written in BASIC (Beginner's All-Purpose Symbolic Instruction Code) for recording events and time intervals into disc files. The data accumulated in these files was later analyzed with the statistical package Statistica® for Windows®.
# The experiment was conducted for 3 days. On the first day, the animals were completely deprived of water. On the second day, i.e., after 24-hours without water, animals were allowed to establish a habit of taking water from the drinking tube. To achieve this, animals were placed in the experimental chamber for 5 minutes. Typically, each animal surveyed the chamber and after a period of time found a drinking tube and started to drink. On the […] day, a weak current of 50 μA was applied to the drinking tube and the chamber floor. […]
# [4] = system: NMDA receptors; conditions: cerebral neurons in rats; cited from earlier work
# [5] = system: SAM-P/10 mice; test: Elevated plus-maze in SAM-P/10 mice with genetically determined anxiety; type: in vivo, mouse; conditions: 11-month old SAM-P/10 mice; for Latent time / Number of entries into bright arms / Number of entries into dark arms / Time in bright arms / Total number of crossings: 40 min prior to testing, 5 min observation
# Text: One of the modern methods of studying the anxiolytic effect of drugs uses a mouse strain with an increased level of anxiety. This study utilized mice of the SAM-P/10 line (Takeda, T., et al., “Senescence-Accelerated Mouse (SAM): A Novel Murine Model of Accelerated Senescence,” J. Amer. Geriatr. Soc., 1991, v. 39, pp. 911-919) weighing between 26 g and 31 g, in which, among other changes, a genetically determined anxiety is observed. […] Those symptoms actively accumulate beginning from the age of 6-months (accelerated aging) (Miyamoto, M., “Indicators of age-related behavioral changes in Senescence-Accelerated Mouse SAMP8 and SAMP10,” Exp. Gerontol., 1997, v. 32, pp. 139-148; and Shimada, A., et al., “Age-related deterioration in conditional avoidance task in the SAM-P/10 mouse, an animal model of spontaneous brain atrophy,” Brain Res., 1993, v. 608, pp. 266-272).
# This study utilized SAM-P/10 (Senescence-Accelerated Mouse P10) mice in two age groups—3-months and 11-months old. A group of 3-month old animals and a group of 11-month old animals were each divided into three subgroups: one group received Dimebon at a dose of 0.05 mg/kg, the second group received Dimebon at a dose of 2 mg/kg, and the third group received physiological saline. All substances were administered intraperitoneally 40 minutes prior to testing in the amount of 0.1 ml per 10 g of mouse weight. This study was conducted during the first half of the day from 10:00 a.m. to 2:00 p.m.
# The maze is elevated 30 cm off the floor. […] Time spent by mice in the open arms of the maze was used as a main indicator of anxiety level.
# [6] = system: AMPA receptors; conditions: cerebral neurons in rats; cited from earlier work
structure (smiles),measurement,setting,value
"CN1C(=O)CN=C(c2ccccc2)c2cc(Cl)ccc21 [Diazepam ®, reference compound]",Effect on horizontal and vertical motion activity within the open field (in words),[1]; 2 mg/kg,significantly suppressed
same,Exits to the center of the field,[1]; 2 mg/kg i.p.,1.8 ± 0.3
same,Horizontal activity,[1]; 2 mg/kg i.p.,10.2 ± 1.4
same,Surveyed holes,[1]; 2 mg/kg i.p.,6.5 ± 1.9
same,Vertical activity,[1]; 2 mg/kg i.p.,3.4 ± 1.3
same,Sedative effect in elevated plus-maze (in words),[2]; 2 mg/kg i.p.,"sedative, depriming effect"
same,Latent time,[2]; 2.0 mg/kg i.p.,7.68 ± 2.0 s
same,Number of entries into bright arms,[2]; 2.0 mg/kg i.p.,2.12 ± 1.08
same,Number of entries into dark arms,[2]; 2.0 mg/kg i.p.,2.20 ± 0.47
same,Time in bright arms,[2]; 2.0 mg/kg i.p.,25.6 ± 6.87 s
same,Total number of crossings,[2]; 2.0 mg/kg i.p.,4.32 ± 1.01
same,No. of punishable drinkings,[3]; 2.0 mg/kg i.p.,372.71 ± 27.81
same,Side effects at the anxiolytic dose (in words),[3]; therapeutic dose of 2 mg/kg,"sedation, reduction in motion activity and impaired coordination"
"Cc1ccc2c(c1)c1c(n2CCc2ccc(C)nc2)CCN(C)C1 [Dimebon, 2,8-dimethyl-5-[2-(6-methyl-3-pyridyl)ethyl]-2,3,4,5-tetrahydro-1H-pyrido[4,3-b]indole]",Effect on NMDA receptors,[4],blocking
same,Exits to the center of the field,[1]; 0.1 mg/kg i.p.,0.8 ± 0.3
same,Horizontal activity,[1]; 0.1 mg/kg i.p.,21.7 ± 5.9
same,Surveyed holes,[1]; 0.1 mg/kg i.p.,12.3 ± 1.7
same,Vertical activity,[1]; 0.1 mg/kg i.p.,7.8 ± 1.3
same,Exits to the center of the field,[1]; 2 mg/kg i.p.,1.5 ± 0.2
same,Horizontal activity,[1]; 2 mg/kg i.p.,20.3 ± 6.1
same,Surveyed holes,[1]; 2 mg/kg i.p.,11.2 ± 2.6
same,Vertical activity,[1]; 2 mg/kg i.p.,6.9 ± 3.2
same,Exits to the center of the field,[1]; 5 mg/kg i.p.,2.2 ± 0.3
same,Horizontal activity,[1]; 5 mg/kg i.p.,19.2 ± 2.4
same,Surveyed holes,[1]; 5 mg/kg i.p.,13.5 ± 1.9
same,Vertical activity,[1]; 5 mg/kg i.p.,9.3 ± 2.4
same,Effect on number of horizontal and vertical movements and surveyed holes (in words),"[1]; doses of 0.1, 2 and 5 mg/kg",did not cause a decrease
same,Anxiolytic effect in the open field test (in words),[1]; doses of 2 and 5 mg/kg,"significant, pronounced anxiolytic effect"
same,Time spent inside the open arms relative to control,[2]; 0.1 mg/kg i.p.,nearly five times as long as the control
same,Latent time,[2]; 0.1 mg/kg i.p.,3.43 ± 0.53 s
same,Number of entries into bright arms,[2]; 0.1 mg/kg i.p.,1.86 ± 1.00
same,Number of entries into dark arms,[2]; 0.1 mg/kg i.p.,5.86 ± 1.53
same,Time in bright arms,[2]; 0.1 mg/kg i.p.,20.00 ± 7.75 s
same,Total number of crossings,[2]; 0.1 mg/kg i.p.,7.71 ± 2.25
same,Increase in the number of entries into the open arms,[2]; 2 mg/kg i.p.,more than twice
same,Latent time,[2]; 2.0 mg/kg i.p.,2.93 ± 0.41 s
same,Number of entries into bright arms,[2]; 2.0 mg/kg i.p.,4.25 ± 1.18
same,Number of entries into dark arms,[2]; 2.0 mg/kg i.p.,7.10 ± 3.21
same,Time in bright arms,[2]; 2.0 mg/kg i.p.,26.34 ± 8.12 s
same,Total number of crossings,[2]; 2.0 mg/kg i.p.,11.60 ± 3.30
same,Increase in total number of crossings,"[2]; 2 mg/kg i.p., P≦0.05",2 times
same,No. of punishable drinkings,[3]; 0.05 mg/kg i.p.,171.31 ± 15.67
same,No. of punishable drinkings,[3]; 0.1 mg/kg i.p.,261.18 ± 29.74
same,No. of punishable drinkings,[3]; 2.0 mg/kg i.p.,354.25 ± 32.49
same,No. of punishable drinkings,[3]; 5.0 mg/kg i.p.,405.33 ± 26.35
same,Change in punishable drinkings versus control (in words),[3]; dose range 0.1 to 5 mg/kg i.p.,statistically significant increase
same,Sedative and muscle relaxant side effects (in words),[3]; doses 0.1-5.0 mg/kg,lacks the sedative and muscle relaxant side effects
same,"Time spent in the open, unprotected arms relative to control (in words)",[5]; 0.05 mg/kg,doubled
same,Latent time,[5]; 0.05 mg/kg i.p.,7.5 ± 1.5 s
same,Number of entries into bright arms,[5]; 0.05 mg/kg i.p.,1.9 ± 1.0
same,Number of entries into dark arms,[5]; 0.05 mg/kg i.p.,5.86 ± 1.53
same,Time in bright arms,[5]; 0.05 mg/kg i.p.,8.7 ± 3.3 s
same,Total number of crossings,[5]; 0.05 mg/kg i.p.,11.7 ± 1.5
same,Increase in the number of entries into the open arms,[5]; 2 mg/kg,more than 4 fold
same,Increase in the time spent in the open arms,[5]; 2 mg/kg,more than 4 fold
same,Latent time,[5]; 2.0 mg/kg i.p.,6.0 ± 1.4 s
same,Number of entries into bright arms,[5]; 2.0 mg/kg i.p.,4.2 ± 1.1
same,Number of entries into dark arms,[5]; 2.0 mg/kg i.p.,7.10 ± 3.21
same,Time in bright arms,[5]; 2.0 mg/kg i.p.,17.7 ± 5.2 s
same,Total number of crossings,[5]; 2.0 mg/kg i.p.,18.1 ± 5.3
same,Effect on transmembrane currents caused by activation of the AMPA receptors,[6],potentiates
